# Data published in patent US20250340543A1, “GPR84 ANTAGONISTS AND USES THEREOF” (Liminal BioSciences Limited, priority 2021, published 2025).
# Molecular target: GPR84 (Homo sapiens (Human), UniProt Q9NQS5)
# Assay: Gai biosensor BRET assay (GPR84-mediated activation of Gai, antagonist mode against agonist ZQ-16)
# Format: cell-based
# Details: HEK293 cells, 200 nmol/L GPR84 agonist ZQ-16, read-out: hGPR84 IC50
# Excerpt: Background—The following assays can be used for determination of GPR84 activation in living HEK293 cells. […] The Gai biosensor consists of a Rluc8-tagged Gαi2 subunit, a GFP10-tagged Gγ2 subunit, and an untagged Gβ1. […] Moreover, signaling functions of GPCRs are tightly regulated by endocytosis, the targeting of receptors to endosomes and their sorting to lysosomes or recycling to the plasma membrane. […] Agonist stimulation of GPR84—Rluc8 leads to trafficking of the receptor to EEs, and ensuing increase of the donor concentration relative to the rGFP-FYVE acceptor anchored in the same cellular compartment, and thus results in an increase in BRET signal.
# Plasmids—The cDNA clones for human GPR84 receptor, human Gαi2, Gβ1, and Gγ2 were obtained from the cDNA Resource Center (www.cdna.org). GFP10 (F64L, S147P, S202F and H231L variant of Aequorea victoria Green Fluorescent Protein) gBlocks gene fragments (Integrated DNA Technologies, IA) and linker were inserted in frame at the N-terminus of human Gγ2. Rluc8 (A55T, C124A, S130A, K136R, A143M, M185V, M253L, and S287L variant of the Renilla renformis luciferase) gBlocks gene fragment was inserted with linkers in frame in between residues 91 and 92 of Gαi2 or at the C-terminus of GPR84. The FYVE domain from human endofin (residues Q739 to K806) attached in frame at the C terminus of a humanized Renilla GFP (rGFP), were synthesized as gBlocks gene fragments.
# Bioluminescence Resonance Energy Transfer (BRET) Measurement—HEK293 cells were transfected with GPR84—Rluc8 and rGFP-FYVE for the EEs trafficking biosensor or with GPR84, Gαi2—Rluc8, GFP10-Gγ2, and Gβ1 for the Gai biosensor. The following day, transiently transfected cells were seeded in 96-well white clear bottom microplates coated with poly-D-lysine and left in culture for 24 hours. Cells were washed once with Tyrode's buffer (140 mmol/L NaCl, 1 mmol/L CaCl2, 2.7 mmol/L KCl, 0.49 mmol/L MgCl2, 0.37 mmol/L NaH2PO4, 5.6 mmol/L glucose, 12 mmol/L NaHCO3, and 25 mmol/L HEPES, pH 7.5) before performing assays in Tyrode's buffer. Test compounds were incubated with cells for 5 (Gai) or 15 (EEs) minutes at 37° C. before addition of 200 nmol/L of the GPR84 agonist ZQ-16 (2-(Hexylthio)-6-hydroxy-4(3H)-pyrimidinone) for 5 minutes at room temperature (Gai) or 30 minutes at 37° C. (EEs). The Rluc8 substrate coelenterazine 400A (Prolume, Lakeside, AZ) was added at a final concentration of […] and BRET readings were collected using an Infinite M1000 microplate reader (Tecan, Morrisville, NC). BRET^2 readings between Rluc8 and GFP10 or rGFP were collected by sequential integration of the signals detected in the 370 to 450 nm (Rluc8) and 510 to 540 nm (GFP10, rGFP) windows. The BRET signal was calculated as the ratio of light emitted by acceptor (GFP10, rGFP) over the light emitted by donor (Rluc8). The values were corrected to net BRET by subtracting the background BRET signal obtained in cells transfected with Rluc8 constructs alone. Ligand-promoted net BRET values were calculated by subtracting vehicle-induced net BRET from ligand-induced net BRET.
# Sequence of GPR84 (Q9NQS5 whole entry): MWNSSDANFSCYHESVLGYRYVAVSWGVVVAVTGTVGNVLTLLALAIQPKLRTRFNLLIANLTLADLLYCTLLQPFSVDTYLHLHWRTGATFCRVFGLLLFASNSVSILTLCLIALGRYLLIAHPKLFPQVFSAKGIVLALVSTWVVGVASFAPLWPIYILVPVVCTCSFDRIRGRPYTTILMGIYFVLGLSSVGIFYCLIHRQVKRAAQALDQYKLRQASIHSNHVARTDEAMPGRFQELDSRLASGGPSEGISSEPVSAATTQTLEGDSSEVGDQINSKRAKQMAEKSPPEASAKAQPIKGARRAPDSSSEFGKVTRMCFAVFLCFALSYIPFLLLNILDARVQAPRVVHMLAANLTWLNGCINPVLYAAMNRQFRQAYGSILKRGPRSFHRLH
row,IC50,Structure (SMILES)
1,> 12.5 µM,Cc1cc(OCc2ccccn2)ccc1-c1cc(OCC2COCCO2)cc(Cl)n1 (centres unmarked) [Compound I-58]

# Same assay, conditions: compound tested at 2 μM (concentration code A)
row,inhibition at 2 µM,Structure (SMILES)
1,25 to 50%,COc1cc(OCC2COc3ncccc3O2)cc(-c2ccc(-c3ccc(C)nc3)cc2C)n1 (centres unmarked) [Compound I-57]

# Same assay, conditions: compound tested at 5 μM (concentration code C)
row,inhibition at 5 µM,Structure (SMILES)
1,< 25%,COc1cc(OCC2COc3cccnc3O2)cc(-c2ccc(-c3ccc(C)nc3)cc2C)n1 (centres unmarked) [Compound I-64]

# Same assay, conditions: compound tested at 10 μM (concentration code D)
row,inhibition at 10 µM,Structure (SMILES)
1,25 to 50%,Cc1cc(OCC(F)(F)F)ccc1-c1cncc(OCC2CCCCO2)c1 (centres unmarked) [Compound I-56]
2,< 25%,Cc1cc(OCC2COc3ccccc3O2)cc(=O)n1C(C)c1ccc(C#CC2CC2)cc1 (centres unmarked) [Compound I-65]
3,< 25%,Cc1cc(OCC2COCCO2)cc(=O)n1C(C)c1ccc(C#CC(C)(C)C)cc1 (centres unmarked) [Compound I-68]
4,< 25%,Cc1cc(OCC2COCCO2)cc(=O)n1C(C)c1ccc(C#CC2CC2)cn1 (centres unmarked) [Compound I-76]
5,< 25%,Cc1cc(OCC2COCCO2)cc(=O)n1Cc1cccc(OCc2ccccc2)c1 (centres unmarked) [Compound I-82]
6,< 25%,Cc1cc(OCC2COCCO2)cc(=O)n1C(C)c1cccc(C#CC2CC2)c1 (centres unmarked) [Compound I-88]
7,< 25%,Cc1cc(OCC2COCCO2)cc(=O)n1Cc1cccc(C#CC(C)(C)C)c1 (centres unmarked) [Compound I-96]
8,< 25%,Cc1cc(OCC2COCCO2)cc(=O)n1Cc1cccc(C#CCNCc2ccccc2)c1 (centres unmarked) [Compound I-97]
9,< 25%,Cc1cc(OCC2COCCO2)cc(=O)n1C(C)c1ccc(OCC(F)(F)F)cc1 (centres unmarked) [Compound I-99]
10,< 25%,Cc1cc(C#CC2CC2)ccc1C(C)n1c(C)cc(OCC2COCCO2)cc1=O (centres unmarked) [Compound I-100]
11,> 75%,Cc1cc(OCC2COc3ncccc3O2)cc(=O)n1C(C)c1ccc(C#CC2CC2)cc1 (centres unmarked) [Compound I-106]
12,< 25%,Cc1cc(C#CC2CC2)ccc1Cn1c(C)nc(OCC2COCCO2)cc1=O (centres unmarked) [Compound I-113]
13,< 25%,Cc1cc(OCC2COCCO2)cc(=O)n1Cc1cccc(OCC(F)(F)F)c1 (centres unmarked) [Compound I-114]
14,< 25%,Cc1ccc(C#CC2CC2)cc1Cn1c(C)cc(OCC2COCCO2)cc1=O (centres unmarked) [Compound I-115]
15,< 25%,Cc1cc(OC[C@H]2COCCO2)cc(=O)n1Cc1ccc(N2CC(C)(C)C2)cc1 [Compound I-116]
16,< 25%,Cc1cc(OCC2COCCO2)cc(=O)n1C(C)c1ccc(C#CCNc2ccccc2)cc1 (centres unmarked) [Compound I-117]
17,< 25%,Cc1cc(OC[C@H]2COc3ncccc3O2)cc(=O)n1Cc1cccc(C#CC2CC2)c1 [Compound I-118]
18,< 25%,O=c1cc(OCC2COCCO2)nc(-c2ccc(C#CC3CC3)cc2)[nH]1 (centres unmarked) [Compound I-119]
19,< 25%,Cc1cc(OCc2ccccn2)ccc1-c1cc(OCC2COCCO2)[nH]c(=O)c1 (centres unmarked) [Compound I-120]
20,< 25%,Cc1cc(OCc2ccccn2)ccc1-c1cc(OCC2COCCO2)n(C)c(=O)c1 (centres unmarked) [Compound I-121]
21,< 25%,Cn1c(-c2ccc(C#CC3CC3)cc2)cc(=O)n(C[C@H]2COCCO2)c1=O [Compound I-122]

# Same assay, conditions: compound tested at 12.5 μM (concentration code E)
row,inhibition at 12.5 µM,Structure (SMILES)
1,25 to 50%,Cc1cc(OCc2ccccn2)ccc1-c1cc(OCC2COCCO2)cc(Cl)n1 (centres unmarked) [Compound I-58]
2,< 25%,Cc1cc(OCC2COc3ccccc3O2)cc(=O)n1Cc1ccc(C#CC2CC2)cc1 (centres unmarked) [Compound I-73]
3,< 25%,Clc1cc(OCC2COCCO2)cc(-c2ccc(OCc3ccccn3)cc2)n1 (centres unmarked) [Compound I-107]

# Same assay, conditions: compound tested at 15 μM (concentration code F)
row,inhibition at 15 µM,Structure (SMILES)
1,< 25%,COc1cc(OCC2COCCO2)cc(-c2cccc(-c3ccc(C)nc3)c2)n1 (centres unmarked) [Compound I-66]
2,< 25%,Cc1cc(OCC2COCCO2)nc(OCc2ccc(C#CC3CC3)cc2)n1 (centres unmarked) [Compound I-85]

# Same assay, conditions: compound tested at 25 μM (concentration code G)
row,inhibition at 25 µM,Structure (SMILES)
1,25 to 50%,[O-][n+]1cc(OCC2COCCO2)cc(-c2ccc(OCC(F)(F)F)cc2)c1 (centres unmarked) [Compound I-59]
2,< 25%,Cn1c(-c2ccc(OCC(F)(F)F)cc2)cc(OCC2COCCO2)nc1=O (centres unmarked) [Compound I-62]
3,< 25%,Cc1cc(OCC2COCCO2)cc(=O)n1Cc1cccc(OCc2ccccn2)c1 (centres unmarked) [Compound I-63]
4,< 25%,Cn1c(-c2ccc(C#CC3CC3)cc2)cc(OCC2COCCO2)cc1=O (centres unmarked) [Compound I-67]
5,< 25%,COc1cc(OCC2COCCO2)cc(-c2cc(C#CC3CC3)ccc2C)n1 (centres unmarked) [Compound I-70]
6,< 25%,Cc1cc(OCc2ccccn2)ccc1-c1cc(OCC2COCCO2)cc(=O)[nH]1 (centres unmarked) [Compound I-71]
7,< 25%,CCc1cc(OCC2COCCO2)cc(OCc2ccc(C#CC3CC3)cc2)n1 (centres unmarked) [Compound I-72]
8,< 25%,COc1cc(NC(=O)C2CCCCO2)cc(-c2ccc(C#CC3CC3)cc2)n1 (centres unmarked) [Compound I-75]
9,< 25%,O=c1nc(OCC2COCCO2)ccn1Cc1cc(OCC(F)(F)F)ccc1Br (centres unmarked) [Compound I-77]
10,< 25%,COc1c(C)cc(OCC2COCCO2)nc1-c1ccc(OCC(F)(F)F)cc1 (centres unmarked) [Compound I-78]
11,< 25%,COc1cc(OCC2COCCO2)cc(-c2cc(C#CCNc3ccccc3)ccc2C)n1 (centres unmarked) [Compound I-79]
12,< 25%,COc1ccc(CN2CCN(c3cc(OCC4COCCO4)nc(=O)n3C)CC2)cc1 (centres unmarked) [Compound I-81]
13,< 25%,COc1cc(NC(=O)C2CCCCO2)cc(-c2cccc(C#CC3CC3)c2)n1 (centres unmarked) [Compound I-84]
14,< 25%,Cc1ccc(N2CCN(c3cc(OCC4COCCO4)nc(=O)n3C)CC2)cn1 (centres unmarked) [Compound I-86]
15,< 25%,COc1cc(OCC2COCCO2)cc(-c2ccc(C#CC3CC3)cc2C)n1 (centres unmarked) [Compound I-90]
16,< 25%,Cc1ccc(-c2ccc(Cn3c(C)cc(OCC4COCCO4)cc3=O)cc2)cn1 (centres unmarked) [Compound I-91]
17,< 25%,Cc1nc(OCc2ccc(C#CC3CC3)cc2)cc(OCC2COCCO2)n1 (centres unmarked) [Compound I-92]
18,< 25%,Cc1ccc(-c2ccc(-c3cc(OCC4COCCO4)cc(Cl)n3)c(C)c2)cn1 (centres unmarked) [Compound I-93]
19,< 25%,COc1cc(OCC2COCCO2)nc(-c2ccc(OCC(F)(F)F)cc2)c1OC (centres unmarked) [Compound I-94]
20,< 25%,COc1cc(OCC2COCCO2)cc(-c2cc(-c3ccc(C)nc3)ccc2C)n1 (centres unmarked) [Compound I-95]
21,< 25%,COc1cc(NC(=O)C2COCCO2)cc(-c2ccc(C#CC3CC3)cc2)n1 (centres unmarked) [Compound I-98]
22,< 25%,Cc1cc(C#CC2CC2)ccc1Cn1c(C)cc(OCC2COCCO2)cc1=O (centres unmarked) [Compound I-101]
23,< 25%,O=c1nc(OCC2COCCO2)cc(-c2ccc(OCC(F)(F)F)cn2)[nH]1 (centres unmarked) [Compound I-102]
24,< 25%,COc1nc(OCC2COCCO2)cc(-c2ccc(C#CC3CC3)cc2C)n1 (centres unmarked) [Compound I-103]
25,< 25%,Cc1ccc(-c2ccc(-c3cc(OCC4COCCO4)cc(Cl)n3)cc2)cn1 (centres unmarked) [Compound I-105]
26,< 25%,Cc1cc(C#CC2CC2)ccc1-c1cc(OCC2COCCO2)cc(Cl)n1 (centres unmarked) [Compound I-108]
27,< 25%,Clc1cc(OCC2COCCO2)cc(-c2ccc(C#CCNc3ccccc3)cc2)n1 (centres unmarked) [Compound I-109]
28,< 25%,COc1nc(OCC2COCCO2)cc(-c2ccc(OCC(F)(F)F)cc2)n1 (centres unmarked) [Compound I-110]
29,< 25%,FC(F)(F)COc1cccc(-c2cccc(OCC3COCCO3)n2)c1 (centres unmarked) [Compound I-111]
30,< 25%,COc1cc(OCC2COCCO2)nc(-c2ccc(OCC(F)(F)F)cc2C)c1C (centres unmarked) [Compound I-112]
